The values that follow come from patent publication US5602106A, “16-membered macrolide derivatives” (priority 1993, dated 1997).

One experiment relates to test strains. In words: Antimicrobial activity in vitro, test strains overall. The experiment is classed as cell-based. A digest of the protocol: (§1)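 MIC by agar plate dilution: ~10^6 CFU/ml inocula (5 μl spots) on Sensitivity disk agar with 5% horse blood, 37 °C for 20 h. Seed cultures grown in Sensitivity test broth, except Streptococcus, Branhamella and Haemophilus, which were precultured on blood agar.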

The subject of experiment [1] is Streptococcus pneumoniae DP-1 Type 1. The experiment in a line: Infection-treating test in mice. In kind it is in vivo. The text has this: The compounds represented by the formula (I) exert excellent in vivo effects in infection-treating tests in mice in comparison with the case of currently known 16-membered macrolide antimicrobial agents. […] Such an excellent effect is related not to the ester bonding of the tertiary hydroxyl group at the 3"-position with an acyl group but directly to its ether bonding with a methyl group. […] In this connection, it has been reported that an isovaleryl group linked to a hydroxyl group at the 4"-position cannot easily be cleaved in rat blood plasma when compared with a propionyl group [Yakugaku Zasshi, 102(8), 781 (1982)].

The test system of experiment [2] is certain bacteria, for example, a species of acid-fast bacteria. The note with it: Chemistry Letters, 769 (1977); cited from earlier work.
For experiment [3], the system named is clinically important Gram-positive bacteria. The experiment in a line: Antimicrobial activity / growth inhibition. The experiment is classed as cell-based. The protocol:
(§2) The effect of the first aspect of the present invention resides in the creation of a novel and useful 16-membered macrolide derivative. Antimicrobial activities of the compounds of the present invention were determined by measuring minimum inhibitory concentration (MIC). Minimum inhibitory concentration was determined by the agar plate dilution method in the following manner.
(§3) Test strains were subjected to seed culture using Sensitivity test broth (STB, Nissui Pharmaceutical) except that the strains belonging to the genus Streptococcus, Branhamella and Haemophilus were cultured on blood agar plate. A 5 μl portion of cell suspension of the test strains having about 10^6 CFU/ml was inoculated into Sensitivity disk agar (SDA, Nissui Pharmaceutical) supplemented with 5% horse blood and incubated at 37° C. for 20 hours. Then, MIC was measured. […] Antimicrobial activities in vitro of the compounds (1) and (2) are shown in Table 1, and those of the compounds (3) and (4) in Table 3.

In a further experiment the test system is S. aureus MS15027. The experiment in a line: MIC, agar plate dilution method. The experiment is classed as cell-based. The note with it: Staphylococcus aureus, MS15027, 20 h, read-out: Antimicrobial activity (MIC), 37° C., 20 hours, SDA with 5% horse blood. Put shortly: as §1
The test system of a further experiment is S. aureus MS15009/pMS99. In words: MIC, agar plate dilution method. The experiment is classed as cell-based. The note with it: Staphylococcus aureus, MS15009/PMS99, 20 h, read-out: Antimicrobial activity (MIC). A digest of the protocol:
(§4)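 Minimum inhibitory concentration by agar plate dilution on disk agar with 5% horse blood; 5 μl of roughly 10^6 CFU/ml inoculated, 37° C. for 20 h.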

A further experiment deals with E. faecalis W-73. The experiment in a line: MIC, agar plate dilution method. The note with it: Enterococcus faecalis, W73, 20 h, read-out: Antimicrobial activity (MIC). The experiment is classed as cell-based. A digest of the protocol: as §1
The subject of the next experiment is M. luteus ATCC9341. The experiment in a line: MIC, agar plate dilution method. The experiment is classed as cell-based. The note with it: Micrococcus luteus, ATCC9341; 37° C., 20 hours, SDA with 5% horse blood; read-out: Antimicrobial activity (MIC). Put shortly: as §1
Another experiment relates to S. aureus M126. In words: MIC, agar plate dilution method. The note with it: Staphylococcus aureus, 37° C., 20 hours, SDA with 5% horse blood, read-out: Antimicrobial activity (MIC). In kind it is cell-based. A digest of the protocol:
as §1

The subject of the next experiment is H. influenzae Type b. The experiment in a line: MIC, agar plate dilution method. In kind it is cell-based. The note with it: Haemophilus influenzae, 20 h, read-out: Antimicrobial activity (MIC), 37° C., 20 hours, SDA with 5% horse blood. Put shortly:
as §1

A further experiment concerns K. pneumoniae PCI602. The experiment in a line: MIC, agar plate dilution method. In kind it is cell-based. The note with it: Klebsiella pneumoniae, PCI602, 20 h, 37° C., SDA with 5% horse blood, read-out: Antimicrobial activity (MIC). Put shortly: as §1
A further experiment concerns S. aureus M133. The experiment in a line: MIC, agar plate dilution method. The experiment is classed as cell-based. The note with it: Staphylococcus aureus, M133, 20 h, read-out: Antimicrobial activity (MIC), 37° C., 20 hours, SDA with 5% horse blood. Put shortly: as §1
Another experiment relates to S. pneumoniae IP692. In words: MIC, agar plate dilution method. In kind it is cell-based. The note with it: Streptococcus pneumoniae, IP692, 20 h, 37° C., 20 hours, SDA with 5% horse blood; read-out: Antimicrobial activity (MIC). A digest of the protocol:
as §4

The next experiment relates to S. epidermidis ATCC14990. In words: MIC, agar plate dilution method. The note with it: Staphylococcus epidermidis, ATCC14990, 20 h, read-out: Antimicrobial activity (MIC), 37° C., 20 hours, SDA with 5% horse blood. The experiment is classed as cell-based. Put shortly:
as §1

A further experiment has as its system B. catarrhalis W-0506. The experiment in a line: MIC, agar plate dilution method. In kind it is cell-based. The note with it: Moraxella catarrhalis, W0506; 37° C., 20 hours, SDA with 5% horse blood; read-out: Antimicrobial activity (MIC). A digest of the protocol: as §1
The next experiment relates to S. aureus MS15009/pMS98. The experiment in a line: MIC, agar plate dilution method. The experiment is classed as cell-based. The note with it: Staphylococcus aureus, MS15009/PMS98, 20 h, read-out: Antimicrobial activity (MIC), 37° C., 20 hours, SDA with 5% horse blood. Put shortly: as §4
The subject of another experiment is S. aureus MS15026. The experiment in a line: MIC, agar plate dilution method. The experiment is classed as cell-based. The note with it: Staphylococcus aureus, 37° C., 20 hours, SDA with 5% horse blood, read-out: Antimicrobial activity (MIC). Put shortly: as §1
The subject of another experiment is B. catarrhalis W-0500. In words: MIC, agar plate dilution method. The experiment is classed as cell-based. The note with it: Moraxella catarrhalis, W0500, 20 h, read-out: Antimicrobial activity (MIC), 37° C., 20 hours, SDA with 5% horse blood. Put shortly:
as §1

In the next experiment the test system is S. aureus 209P JC-1. In words: MIC, agar plate dilution method. The experiment is classed as cell-based. The note with it: Staphylococcus aureus, 209P, 20 h, 37° C., 20 hours, SDA with 5% horse blood; read-out: Antimicrobial activity (MIC). Put shortly:
as §1

In the next experiment the test system is S. pneumoniae Type 1. In words: MIC, agar plate dilution method. In kind it is cell-based. The note with it: Streptococcus pneumoniae, TYPE1; 37° C., 20 hours, SDA with 5% horse blood; read-out: Antimicrobial activity (MIC). A digest of the protocol:
as §4

Experiment [4] concerns drug-resistant strain of Staphylococcus. In words: Antimicrobial activity in vitro. In kind it is cell-based. The note with it: vs clarithromycin. The protocol: as §2, §3
Another experiment concerns Streptococcus pneumoniae. The experiment in a line: Antimicrobial activity in vitro. In kind it is cell-based. The note with it: compared with MDM and LM-A7. The protocol: as §2, §3
The next experiment has as its system Enterococcus feacalis. The experiment in a line: Antimicrobial activity in vitro. In kind it is cell-based. The note with it: vs clarithromycin. The protocol: as §2, §3
For the next experiment, the system named is Haemophilus influenzae. The experiment in a line: Antimicrobial activity in vitro. The note with it: vs clarithromycin. In kind it is cell-based. The protocol: as §2, §3
The test system of a further experiment is Branhamella catarrhalis. In words: Antimicrobial activity in vitro. In kind it is cell-based. The note with it: vs clarithromycin. The protocol: as §2, §3

Each structure is given as a SMILES string. In brackets after ≈: the same amount, converted by molar mass. Entries after “also recorded” stand apart in the source; their conditions may differ.

For the compound `CCC(=O)O[C@@H]1CC(=O)O[C@H](C)C/C=C/C=C/[C@H](OC(C)=O)[C@H](C)C[C@H](CC=O)[C@H](O[C@@H]2O[C@H](C)[C@@H](O[C@H]3C[C@@](C)(OC)[C@@H](OC(=O)CC)[C@H](C)O3)[C@H](N(C)C)[C@H]2O)[C@H]1OC` [(5), 9-O-acetyl-3"-O-methylmidecamycin A1], in the experiment on test strains (9-O-acylated vs free 9-hydroxyl), the “antimicrobial activities compared with starting materials (1), (2) and (33)” value was “strong antimicrobial activities by themselves though slightly lower than those of their starting materials”. Also, the “antimicrobial activities in vitro compared with miokamycin” value in the experiment with test strains (vs miokamycin (MOM)) is listed as “comparable to or higher”. Also, the “amount giving a coordinate infection-treating effect relative to miokamycin” value in experiment [1] (fraction of miokamycin amount) is 1/4. Further, in experiment [1] (fraction of rokitamycin amount), the “amount giving a coordinate infection-treating effect relative to rokitamycin” value is 1/8.

Regarding `CO[C@@H]1[C@@H](O[C@@H]2O[C@H](C)[C@@H](O[C@H]3C[C@@](C)(OC)[C@@H](OC(=O)CC(C)C)[C@H](C)O3)[C@H](N(C)C)[C@H]2O)[C@@H](CC=O)C[C@@H](C)C(=O)/C=C/C=C/C[C@@H](C)OC(=O)C[C@H]1OC(C)=O` [3"-O-methylcarbomycin B], the “antimicrobial activity compared with carbomycin B” value in experiment [2] is recorded as “higher antimicrobial activity than carbomycin B”.

On to `CCC(=O)O[C@H]1[C@H](C)O[C@@H](O[C@H]2[C@H](N(C)C)[C@@H](O)[C@H](O[C@H]3[C@@H](CC=O)C[C@@H](C)[C@@H](O)/C=C/C=C/C[C@@H](C)OC(=O)C[C@@H](O)[C@@H]3OC)O[C@@H]2C)C[C@@]1(C)OC` [(2), 3"-O-methylleucomycin A7], for which the “antimicrobial activities (in words)” value in [3] is listed as “strong antimicrobial activities”. Further, the “antimicrobial activities in vitro compared with corresponding compounds having free 3"-hydroxyl (MDM, LM-A7)” value in the experiment with test strains (against most of test strains) is recorded as “twice as high”. Besides, in the experiment on test strains (vs rokitamycin), the “antimicrobial activities in comparison with rokitamycin” value is listed as “generally excellent except for a Gram-negative bacterium (Branhamella catarrhalis); also recorded: slightly superior to those of rokitamycin”. Besides, the MIC with S. aureus MS15027 was 0.2 µg/mL (≈ 0.259 µM); in the experiment on S. aureus MS15009/pMS99 it was above 100 µg/mL; in the experiment with E. faecalis W-73 it was 0.39 µg/mL (≈ 0.505 µM); in the experiment with M. luteus ATCC9341, below 0.025 µg/mL; with S. aureus M126 it was above 100 µg/mL; in the experiment on H. influenzae Type b, 6.25 µg/mL (≈ 8.1 µM). Also, the MIC was above 100 µg/mL in the experiment with K. pneumoniae PCI602; 0.2 µg/mL (≈ 0.259 µM) in the experiment on S. aureus M133; below 0.025 µg/mL with S. pneumoniae IP692; 0.2 µg/mL (≈ 0.259 µM) in the experiment with S. epidermidis ATCC14990; 0.78 µg/mL (≈ 1.01 µM) in the experiment on B. catarrhalis W-0506; 0.2 µg/mL (≈ 0.259 µM) in the experiment on S. aureus MS15009/pMS98. Besides, the MIC in the experiment with S. aureus MS15026 is above 100 µg/mL; in the experiment on B. catarrhalis W-0500, 0.39 µg/mL (≈ 0.505 µM); with S. aureus 209P JC-1, 0.1 µg/mL (≈ 0.13 µM); with S. pneumoniae Type 1 it was 0.05 µg/mL (≈ 0.0648 µM). Also, the “antimicrobial activity compared with clarithromycin” value in experiment [4] was “definitely superior antimicrobial activity”; with Enterococcus feacalis it was “comparable or slightly superior activities”; in the experiment on Haemophilus influenzae, “comparable or slightly superior activities”; in the experiment with Branhamella catarrhalis, “inferior to that of clarithromycin”. Further, in the experiment on Streptococcus pneumoniae, the “antimicrobial activity against Streptococcus pneumoniae” value is “considerably improved antimicrobial activity”.
